Experimental data reported in article PMC5495782, “Designed α-sheet peptides suppress amyloid formation in Staphylococcus aureus biofilms” (NPJ Biofilms and Microbiomes, 2017).
“Also recorded” adds a separate entry of the source. Where a SMILES comes first, the peptide text is derived from it. [ ]: non-standard residue; d: D form.

Key:
[1] = tested on: S. aureus MN8 biofilm amyloid; test: ThT fluorescence assay of amyloid in MN8 biofilms; format: cell-based, Staphylococcus aureus MN8; settings: 24 h
Description: (§1) Fig. 1 Screening of designed peptides for inhibition of amyloid formation in S. aureus biofilms. a Schematic of protocol for testing designed α-sheet peptides in S. aureus biofilm cultures with an illustration of the main-chain structure of the AP90 α-sheet design. b A panel of designed α-sheet peptides (AP90, AP401, and AP407), as well as random coil (RC) and β-hairpin controls (β), was tested against two S. aureus strains, MN8 (hashed bars) and SH1000 WT (white bars). […] Error bars in b and c represent the standard error of the mean for experiments performed in triplicate […]
(§2) ThT, an established fluorescent label for amyloid fibrils,[43] was then added to each well at a concentration of 22 μM and biofilms were incubated statically for 4 h at room temperature. […] Plates were shaken at high speed for 1 min on a plate shaker to detach any remaining biofilm material and homogenize the samples, which were then transferred to a 96-well black-walled plate (Corning, TC-treated polystyrene) and ThT fluorescence was measured using an excitation wavelength of 438 nm and emission at 495 nm on a Perkin–Elmer Enspire plate reader (hereafter referred to as the plate reader). Fluorescence measurements were corrected by subtracting the background intensity of identical samples without ThT (in the case of the biofilms) or PSMα1 (for the in vitro measurements). […]

[2] = ref [25]; cited from earlier work
Description: In addition, the structural properties of the peptide provide a benchmark, or spectroscopic signature, for α-sheet structure, which can be used to interpret spectra of amyloid species. The main α-sheet design used here is AP90 (Alternating Peptide #90, referred to as α1 previously, [26]), but we also tested several other designs (Supp ...

S. aureus biofilm = test: Crystal Violet staining of S. aureus biofilm (24 h batch growth); format: cell-based, Staphylococcus aureus; settings: 24 h batch growth in microtiter plates; 0.5% w/v Crystal Violet, absorbance at 550 nm; strain not stated; peptide 80 μM unless otherwise noted
Description: We employed two S. aureus strains—SH1000 WT, a rsbU ^+ laboratory strain,[27] and MN8, a clinical strain isolated from the human urogenital tract[28] (Supplementary Table S2). First we confirmed that the cells formed biofilms by batch growth of the bacteria in microtiter plates through staining with Crystal Violet dye after 24 h. Application of our AP90 α-sheet design led to a 54% reduction in biofilm. As crystal violet is a crude measure of the extent of biofilm formation, we assessed amyloid fibril formation in the biofilms by adapting the conventional Thioflavin T (ThT) amyloid fibril assay for use in live cells. After 24 h of batch growth in microtiter plates, the biofilms were washed and incubated with ThT, and the resulting fluorescence signals served as a proxy for the extent of fibril formation in the EM (Fig. 1a). Next, we utilized this assay to test the α-sheet inhibitor designs and control peptides described above (sequences provided in Supplementary Table S1). […]
ThT, an established fluorescent label for amyloid fibrils,[43] was then added to each well at a concentration of 22 μM and biofilms were incubated statically for 4 h at room temperature. […] Fluorescence measurements were corrected by subtracting the background intensity of identical samples without ThT (in the case of the biofilms) or PSMα1 (for the in vitro measurements). […]

PSMα1 [3] = target: T1, PSMα1 (Staphylococcus aureus, UniProt A9JX05); test: Biolayer interferometry, AP90 on sensor tip, PSMα1 in solution; format: binding; settings: PSMα1 α-sheet-rich (~48 h) vs α-helix-rich (~0 h) or β-sheet-rich (~150 h)
T1 construct: synthetic PSMα1 (f[…], where f denotes formylation, Ontores Biotechnologies); purchased Ontores Biotechnologies; host or cells: chemical synthesis
T1 sequence (A9JX05 whole entry, looked up): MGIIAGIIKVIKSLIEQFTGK
Description: The binding was explored further using biolayer interferometry, which analyzes interference patterns based on adsorption of samples to a biosensor tip.
All biolayer interferometry experiments were performed on a BLItz biosensor system (ForteBio, Pall) using aminopropylsilane (APS) sensors. Sensors were hydrated in ddH2O + 22 μM ThT for 10 min prior to use; ThT was included to mirror the conditions of the corresponding aggregation curves.

PSMα1 [4] = target: T1, PSMα1; format: binding; settings: fresh (0 h), pre-incubated (48 h) and fibrillar (165 h) PSMα1; 2 h, 25 °C; GndHCl elution; NanoOrange fluorescence; six samples
Description: To further probe the interactions between PSMα1 and the designed α-sheet peptides, we immobilized AP90 on agarose beads and applied solutions of either (a) fresh (completely solubilized), (b) pre-incubated, (allowed to aggregate as in Fig. 6a for 48 h corresponding to α-sheet oligomer species) or (c) fibrillar PSMα1. The bead mixtures were contained within a micro-spin column, so the system was treated as a packed bed reactor and a series of phosphate buffered saline (PBS) washes was used to remove unbound material. The PSMα1 content of each wash was measured with a fluorescence-based assay. PSMα1 bound to immobilized AP90 was eluted with high guanidinium hydrochloride (GndHCl).
Meanwhile, PSMα1 samples were prepared as above (see “PSM fibrillization assay”) and incubated at 37 °C. […] FT and the washes (W1-W7) were analyzed with the NanoOrange® Protein Quantitation Kit (Thermo Fisher Scientific). […] This approach was necessary because elution of bound PSMα1 with GndHCl obscures protein quantification, and unfortunately, the inability to quantify the GndHCl bound fractions prevents confirmation of the mass balance. […]
were alternated with PBS washes (W8-W13). All eluents were then analyzed with the
NanoOrange® Protein Quantitation Kit and fluorescence was used as an indicator of
PSMα1 content in each eluent. Fluorescence measurements were normalized by the […]

[5] = tested on: S. aureus SH1000 WT biofilm PSM amyloid fibrils; test: TEM of biofilms for extracellular fibril deposits; format: cell-based, Staphylococcus aureus SH1000 WT; settings: 80 μM AP90, biofilms grown 24 h
Description: To further investigate the ability of designed peptides to inhibit PSM amyloid formation, fluorescent (mCherry) S. aureus MN8 biofilms were grown in culture plates with glass bottom wells with or without α-sheet inhibitors. After 24 h at 37 °C the biofilms were gently rinsed with pipetted saline to remove unattached biomass and the remaining attached cells were fixed and imaged. A robust biofilm formed on the glass at the bottom of each well in LB medium alone (Fig. 2a); in contrast, there was significant disruption of the biofilm in the presence of the α-sheet compounds. […] Quantification of the images is presented in Supplementary Fig. S2. […] Addition of anti-α-sheet peptides triggered a significant reduction in PSM amyloid formation as measured by ThT fluorescence, which presumably weakened the S. aureus biofilms and their attachments by reducing the PSM amyloid fibril content of the EM. […]
Fig. 2 S. aureus biofilm structures become less robust when grown in the presence of designed peptide inhibitors. a S. aureus MN8 + mCherry biofilms were grown on glass substrates for 24 h and then cells were washed and fixed. […] For quantification of the images see Supplementary Fig. S2. b In S. aureus SH1000 WT biofilms grown in regular LB medium, PSM amyloid fibrils were visible as deposits in spaces between cells (left).
Images were analyzed using Gwyddion software (Czech Metrology Institute).

[6] = tested on: S. aureus SH1000 WT biofilm amyloid; test: ThT fluorescence assay of amyloid in SH1000 WT biofilms; format: cell-based, Staphylococcus aureus SH1000 WT; settings: 80 μM peptide, 24 h, 37 °C
Description: as §1, §2

synthetic PSMα1 [7] = test: PSMα1 fibrillization assay with added inhibitors (ThT), water; format: biochemical, Staphylococcus aureus; settings: 30 μM PSMα1, inhibitor at 4:1 molar ratio, 0.34% v/v DMSO in ddH2O, pH 5, 37 °C, ThT 22 μM; SEM of 3–6 replicates; vs peptide-free control
Description: (§3) Two different solvent conditions were used (0.34% DMSO in water, blue bars; LB medium + 0.34% DMSO, red bars) and aggregation was monitored by ThT fluorescence. Inhibition values for each peptide are reported as a percentage of the peptide-free control samples (0% inhibition). […] Fluorescence values in NaCl solution were quite high, so its curve is shown as an inset.

synthetic PSMα1 [8] = test: PSMα1 fibrillization assay with added inhibitors (ThT), LB medium; format: biochemical, Staphylococcus aureus; settings: LB medium + 0.34% DMSO, 37 °C
Description: as §3

[9] = CD spectroscopy of designed and control peptides; format: physicochemical; settings: 100 µM (RC 30 µM), phosphate buffer (β and AP193: acetate buffer), room temperature
Description: AP407 is a variant of AP90 with a disulfide bond. […] An unstructured random coil peptide (RC) and a β-sheet hairpin (β) are used as structural controls.[25], [26]
CD spectra of RC, β, AP90, AP401, AP407, and AP193. Peptides were
dissolved to a concentration of 100 µM (except for RC, which was 30 µM) in phosphate
buffer (except for β and AP193, which were in acetate buffer) and spectra were
acquired at room temperature. […] MRE = mean residue ellipticity.

CSCC[C@H](NC(=O)[C@@H](CCCCN)NC(=O)[C@H](CC(C)C)NC(=O)[C@@H](CC(N)=O)NC(=O)[C@H](CCSC)NC(=O)[C@H](NC(=O)[C@H](Cc1c[nH]c2ccccc12)NC(=O)CNC(=O)[C@H](CO)NC(=O)[C@H](Cc1ccc(O)cc1)NC(=O)[C@H](CCC(=O)O)NC(=O)[C@H](CC(N)=O)NC(=O)[C@H](CCSC)NC(=O)[C@@H](Cc1c[nH]c2ccccc12)NC(=O)[C@H](CO)NC(=O)[C@@H](CC(C)C)NC(=O)[C@H](CC(N)=O)NC(=O)[C@@H](CCSC)NC(=O)[C@H](CCC(=O)O)NC(=O)CNC(=O)[C@H](CCCNC(=N)N)NC(C)=O)[C@H](C)O)C(=O)NCC(=O)N[C@@H](CCCNC(=N)N)C(N)=O [AP90] (Ac-RGE[dM]N[dL]S[dW]MNEYSGW[dT]M[dN]L[dK]MGR-NH2)
effect on amyloid fibril formation (ThT), in words ([1]; 80 μM peptide, 37 °C, effect particularly for the MN8 clinical isolate): significant reduction in amyloid fibril formation | dose-response of biofilm amyloid content (ThT), in words ([1]; increasing concentrations of AP90 in culture medium): fibril formation decreased in a dose-dependent manner; also recorded: significant decrease in EM amyloid content as the concentration of AP90 is increased | secondary structure by CD, FTIR and 2D NMR [2]: does not adopt conventional secondary structure | reduction in biofilm (Crystal Violet) (S. aureus biofilm): 54% | binding preference by KD, in words (PSMα1 [3]): preferential binding between AP90 and α-sheet-rich PSMα1 (~48 h) | binding of PSMα1 samples to immobilized AP90 (PSMα1 [4]): more of the oligomer sample bound to the column than fresh or fibrillar material | extracellular PSM fibril deposits by TEM [5]: amyloid fibrils could not be found; also recorded: no extracellular fibril deposits were observed; also recorded: no amyloid fibrils were visible | effect on amyloid fibril formation (ThT), in words [6]: significant reduction in amyloid fibril formation | reduction of amyloid fibril formation (ThT) ([6]; LB Lennox, ThT 22 μM, ex 438 / em 495 nm, vs peptide-free control, experiments in triplicate): ~ 30% | inhibition of PSMα1 amyloid formation (synthetic PSMα1 [7]): 81 ± 5% | inhibition of PSMα1 fibril formation (synthetic PSMα1 [8]; 30 μM PSMα1, 1:4 PSMα1:inhibitor, ThT 22 μM, SEM of 3–6 replicates, vs peptide-free control): 73 ± 11% | effect on PSMα1 fibril formation, in words (synthetic PSMα1 [8]; 30 μM PSMα1, 1:4 PSMα1:peptide): inhibited fibril formation to nearly the same extent as in water; also recorded: inhibition by AP90 persisted | CD spectrum (secondary structure) [9]: featureless spectrum, except for negative ellipticity in the so-called random coil region around 195–200 nm
